From paper PMC9709698 (Journal of Molecular Structure, 2022)

What was measured:
SARS-CoV-2 = assay: Plaque infectivity reduction assay; type: cell-based; conditions: for inhibition at 62.5 µM: Severe acute respiratory syndrome coronavirus 2, read-out: Virus inhibition% Adsorption, 62.5 µM; for inhibition at 125 µM: Severe acute respiratory syndrome coronavirus 2, read-out: Virus inhibition% Adsorption, 125 µM
NRC-03-nhCoV = assay: Antiviral activity; type: cell-based, SARS-CoV-2; conditions: CC50 Vero-E6 / IC50 NRC-03-nhCoV

SMILES	SI (selectivity index) [CC50/IC50] (NRC-03-nhCoV)	also measured
O=C(CSc1nc2c(c(=O)[nH]1)CCCC2)NNC(=O)c1ccc([N+](=O)[O-])cc1 [Compound 18c, 4-Nitro-N'-(2-((4-oxo-3,4,5,6,7,8-hexahydroquinazolin-2-yl)thio)acetyl)benzohydrazide]	10.67	inhibition at 62.5 µM (SARS-CoV-2): 28.9 ± 10.2%; inhibition at 125 µM (SARS-CoV-2): 44.4 ± 3.87%
O=C(CSc1nc2ccccc2c(=O)[nH]1)NNC(=O)c1ccccc1Br [Compound 17g, 2-Bromo-N'-(2-((4-oxo-3,4-dihydroquinazolin-2-yl)thio)acetyl)benzohydrazide]	8.64	inhibition at 62.5 µM (SARS-CoV-2): 26.7 ± 6.65%; inhibition at 125 µM (SARS-CoV-2): 29.6 ± 8.3%
O=C(CSc1nc2ccccc2c(=O)[nH]1)NNC(=O)c1ccccc1Cl [Compound 17e, 2-Chloro-N'-(2-((4-oxo-3,4-dihydroquinazolin-2-yl)thio)acetyl)benzohydrazide]	0.24	–
O=C(CSc1nc2ccccc2c(=O)[nH]1)NNC(=O)c1ccc(Cl)cc1 [Compound 17f, 4-Chloro-N'-(2-((4-oxo-3,4-dihydroquinazolin-2-yl)thio)acetyl)benzohydrazide]	4.3	–
Cc1ccc(C(=O)NNC(=O)CSc2nc3ccccc3c(=O)[nH]2)cc1 [Compound 17b, 4-Methyl-N'-(2-((4-oxo-3,4-dihydroquinazolin-2-yl)thio)acetyl)benzohydrazide]	2.14	–
O=C(CSc1nc2c(c(=O)[nH]1)CCCC2)NNC(=O)c1ccccc1 [Compound 18a, N'-(2-((4-oxo-3,4,5,6,7,8-hexahydroquinazolin-2-yl)thio)acetyl)benzohydrazide]	1.68	–
O=C(CSc1nc2c(c(=O)[nH]1)CCCC2)Nc1ccccc1C(=O)O [Compound 12a, 2-(2-((4-Oxo-3,4,5,6,7,8-hexahydroquinazolin-2-yl)thio)acetamido)benzoic acid]	2.5	–
O=C(CSc1nc2ccccc2c(=O)[nH]1)Nc1ccc(C(=O)O)cc1 [Compound 11c, 4-(2-((4-Oxo-3,4-dihydroquinazolin-2-yl)thio)acetamido)benzoic acid]	5.6	–
O=C(CSc1nc2c(c(=O)[nH]1)CCCC2)NNC(=O)c1ccccc1Cl [Compound 18e, 2-Chloro-N'-(2-((4-oxo-3,4,5,6,7,8-hexahydroquinazolin-2-yl)thio)acetyl)benzohydrazide]	1.14	–
O=C(CSc1nc2c(c(=O)[nH]1)CCCC2)Nc1cccc(C(=O)O)c1 [Compound 12b, 3-(2-((4-Oxo-3,4,5,6,7,8-hexahydroquinazolin-2-yl)thio)acetamido)benzoic acid]	0.98	–
O=C(CSc1nc2ccccc2c(=O)[nH]1)Nc1ccccc1C(=O)O [Compound 11a, 2-(2-((4-Oxo-3,4-dihydroquinazolin-2-yl)thio)acetamido)benzoic acid]	4.3	–
O=C(CSc1nc2ccccc2c(=O)[nH]1)NNC(=O)c1ccccc1 [Compound 17a, N'-(2-((4-Oxo-3,4-dihydroquinazolin-2-yl)thio)acetyl)benzohydrazide]	0.59	–
O=C(CSc1nc2c(c(=O)[nH]1)CCCC2)Nc1ccc(C(=O)O)cc1 [Compound 12c, 4-(2-((4-Oxo-3,4,5,6,7,8-hexahydroquinazolin-2-yl)thio)acetamido)benzoic acid]	0.63	–
O=C(CSc1nc2ccccc2c(=O)[nH]1)Nc1cccc(C(=O)O)c1 [Compound 11b, 3-(2-((4-Oxo-3,4-dihydroquinazolin-2-yl)thio)acetamido)benzoic acid]	4.9	–
O=C(CSc1nc2c(c(=O)[nH]1)CCCC2)NNC(=O)c1ccccc1Br [Compound 18g, 2-Bromo-N'-(2-((4-oxo-3,4,5,6,7,8-hexahydroquinazolin-2-yl)thio)acetyl)benzohydrazide]	5.23	–
O=C(CSc1nc2ccccc2c(=O)[nH]1)NNC(=O)c1ccc([N+](=O)[O-])cc1 [Compound 17c, 4-Nitro-N'-(2-((4-oxo-3,4-dihydroquinazolin-2-yl)thio)acetyl)benzohydrazide]	2.61	–
O=C(CSc1nc2c(c(=O)[nH]1)CCCC2)NNC(=O)c1ccc(Cl)cc1 [Compound 18f, 4-Chloro-N'-(2-((4-oxo-3,4,5,6,7,8-hexahydroquinazolin-2-yl)thio)acetyl)benzohydrazide]	16.04	Virus inhibition% Virucidal (SARS-CoV-2; 125 µM): 53.3 ± 3.35%; inhibition at 62.5 µM (SARS-CoV-2): 13.3 ± 3.35%; inhibition at 125 µM (SARS-CoV-2): 20 ± 3.3%
COc1ccccc1C(=O)NNC(=O)CSc1nc2ccccc2c(=O)[nH]1 [Compound 17d, 2-Methoxy-N'-(2-((4-oxo-3,4-dihydroquinazolin-2-yl)thio)acetyl)benzohydrazide]	0.4	–
COc1ccccc1C(=O)NNC(=O)CSc1nc2c(c(=O)[nH]1)CCCC2 [Compound 18d, 2-Methoxy-N'-(2-((4-oxo-3,4,5,6,7,8-hexahydroquinazolin-2-yl)thio)acetyl)benzohydrazide]	2.95	–
Cc1ccc(C(=O)NNC(=O)CSc2nc3c(c(=O)[nH]2)CCCC3)cc1 [Compound 18b, 4-Methyl-N'-(2-((4-oxo-3,4,5,6,7,8-hexahydroquinazolin-2-yl)thio)acetyl)benzohydrazide]	4.43	–
